Experimental data taken from patent publication US6153434A, “Methods for the intracellular delivery of substances” (University of Florida, priority 1999, dated 2000).
Like-named read-outs stand apart in the source and are kept apart here.

Columns and labels:
CHO and SKnSH cells = assay: Cytotoxicity of liposome/DNA complexes, both cell lines (FIG. 6); type: cell-based
Procedure: FIGS. 6A and 6B show the toxicity assays of cytotoxicity of the liposome/DNA complexes was studied in CHO and SKnSH cells. A fixed dose of 1 μg/well of pDNA was mixed with increasing amount of cationic liposomes and used in the toxicity assay. Cell viability was calculated as percentage of survival cells as stated in the Methods section. FIG. 6A: Toxicity in CHO cells. FIG. 6B: Toxicity in SKnSH cells. .diamond-solid.CHDTAEA/DOPE, .box-solid.CHSTAEA/DOPE; .tangle-solidup.DC-Chol/DOPE. Data is shown as mean (S. D. (n=3).
Toxicity Assay of CHDTAEA, CHSTAEA and DC-Chol: The toxicity of CHDTAEA/DOPE, CHSTAEA/DOPE and DC-Chol/DOPE in the CHO and SKnSH cell line was determined using a CARE-LASS (a calcein release assay). Before the assay, cells were plated in a 96 well plate (1(10^5 cells/well) and grown to 60-80% confluence overnight. To test the toxicity of the DNA/liposome complexes, a fixed amount of DNA (1 μg/well) was used to complex with increasing amount of liposomes. The ratios of DNA to liposome of different treatments were the same as the ratios used in transfection studies. The cytotoxicity of three liposomes were measured and expressed according to our previous procedure (Tang, F., J. A. Hughes (1998) Biochem Biophys Res Commun 242:141-145). Each experiment was performed in triplicate and repeated at least twice.

CHO cells [1] = assay: Transfection efficiency assay (green fluorescence protein, pUF2 DNA); type: cell-based, Chinese hamster; conditions: optimal transfection ratio
Procedure: Transfection efficiency assay: The optimal weight ratio for transfection of each liposome was used. […] Complexes were incubated with CHO cells in serum free media for 4.5 hour then the media was changed to growth media and further incubated for 20 hours. Transfection efficiency was determined by counting the number of green fluorescence cells compared with all cells in the field of vision under (20 magnification using a Nikon Diaphot inverted microscope). Each transfection was done in triplicate and three separate counts were made for each well.

[2] = system: COS 1 cells and CHO cells; assay: Luciferase gene transfection (second set of experiments), COS 1 and CHO; type: cell-based; conditions: serum free media
Procedure: (§2) In another set of experiments COS 1 and Chinese hamster ovary (CHO) cells were maintained in DMEM (high glucose) and (-MEM) respectively, and supplemented with 10% fetal bovine serum (FBS) and antibiotics (penicillin 100 g/ml and streptomycin 100 μg/ml). All cells were kept in 5% CO2 and at 37° C. in humidified air. Cell lines were cultured and seeded in 24 well plates (2×10^5), and grown to 60-80% confluence in 1 ml of media with serum. DNA/lipid complexes were made and incubated at room temperature in serum free media for 5-10 minutes and used for transfection. Before transfection, growth media containing serum was changed to serum free media and for the experiment to test serum sensitivity, growth media were changed to fresh growth media and the transfection mixtures were added to the cells. After a certain period of time for the specific experiments, the media was changed to growth media containing serum, and the cells were grown for another 48 hours. Following transfection and incubation, cells were rinsed twice with phosphate buffer saline. 100 μL of luciferase lysis buffer (0.1 M potassium phosphate buffer pH 7.8, 2 mM EDTA, 1% Triton X-100, 1 mM DTT) was added to the cells. The cells were lysed with shaking at room temperature for 15 minutes. Luciferase activity was quantified by using a Monolight 2010 Luminometer. 100 µl of luciferase assay buffer (30 mM tricine, 3 mM ATP, 15 mM MgSO4, 10 mM DDT, pH=7.8) and 2 μL of cell lysate were added to a 100 l injection of 1 mM D-luciferin, pH=6.3 (Molecular Probes). The light emission over a 10 second reaction period was integrated. […] 2 l of cells lysate was used for luciferase assay. The total protein concentration in the supernatant was measured by the BCA protein assay reagent (Pierce, Rockford, Ill.). Luciferase activity in cultured cells was expressed as RLU per mg of protein. Each experiment was repeated at least twice, and within in a series, experiments were done in triplicate.
(§3) Comparison experiments were done by using a fixed amount of DNA (3 g/well). Transfection activity of six ratios of cationic lipid to DNA: 1/1, 2/1, 3/1, 4/1, 8/1, and 10/1 (w/w) were tested in COS 1 cells and CHO cells. […] Since serum was reported to decrease the transfection activity of some cationic liposomes, transfection was studied both in serum free media and growth media containing 10% of FBS.

COS 1 cells = assay: Luciferase gene transfection (second set of experiments)
Procedure: as §2, §3

[3] = Aggregation of transfection complexes during transfection; type: physicochemical
Procedure: The lack of physical stability of liposome/DNA complexes affects the gene transfection activity (Caplen, N. J., E. Kinrade, F. Sorgi, X Gao, D. Gruenert, C. Couttelle, L. Huang, E. W . F. W. Alton, R. Williamson (1995) Gene Ther. 2:603). […] The interaction force between primary amino groups and DNA is not as strong as the interaction force of a quaternary amino group with DNA and is dependent on the local environment.
(§1) When DNA transfection was carried out in serum free media, the DNA/liposome complexes usually incubated with cells for about 4-5 hours. […] Biophys. Acta 1111, 239-246). For gene transfection in growth media containing 10% FBS, the toxicity of complexes may be alleviated, and also the transfection may be inhibited by enzymes or slowed down by negatively charged macromolecules.

CHO cells [4] = assay: Luciferase gene transfection (second set of experiments); type: cell-based, Chinese hamster
Procedure: as §1
Biophys. Acta 1111, 239-246).

plasmid DNA = assay: Dissociation of DNA from DNA/liposome complexes by glutathione, agarose gel electrophoresis; type: physicochemical; conditions: in both reductive and non-reductive environments, 20 hours
Procedure: Dissociation of DNA from DNA/liposome complexes by glutathione: One μg of plasmid DNA was dissolved in 10 (L of phosphate-buffer saline (PBS). Cationic liposomes […] or CHSTAEA/DOPE were added to pDNA solution at the increasing weight ratios of 2/1, respectively. All calculations of the weight of liposomes in this paper were based on the weight of cationic lipids only. After the complexes were incubated for 30 minutes at room temperature, 10 (L of 20 mM of glutathione in PBS (pH=7.3) was added to the mixture to reach a final concentration of glutathione of 10 mM. The mixtures were incubated at 37° C. for 20 hours. Released DNA was visualized by 1% agarose gel electrophoresis.
DNA was complexed with a disulfide cationic liposome CHDTAEA/DOPE or its non-disulfide cationic liposome analog CHSTAEA/DOPE at the cationic lipid to DNA ratio of 2/1. […] In the presence of 10 mM of glutathione, >50% of DNA was released from complexes after the incubation. […] The complexes with the ratios of cationic liposome/DNA from 3/1 to 5/1 were also tested in the release assay with similar same results.

COS-1 cells = assay: Luciferase gene transfection; type: cell-based
SKnSH cells = assay: Luciferase gene transfection; type: cell-based
293 cells = assay: Luciferase gene transfection; type: cell-based
[5] = weight ratio 10/1 (charge ratio 6/1(+/-))
[6] = CHO cells, growth media containing 10% FBS
[7] = CHO, serum free, optimal ratio of each liposome

CC(C)CCC[C@@H](C)[C@H]1CC[C@H]2[C@@H]3CC=C4C[C@@H](OC(=O)NCCN(C)C)CC[C@]4(C)[C@H]3CC[C@]12C [DC-Chol, Cholesteryl N-(dimethylaminoethyl)carbamate, reference compound]
cytotoxicity vs CHDTAEA (CHO and SKnSH cells; FIG. 6): much greater cytotoxicity

CCCCCCCC/C=C\CCCCCCCC(=O)OCC(COC(=O)CCC(=O)OCCCCCCOC(=O)[C@@H](N)CCCN)OC(=O)CCCCCCC/C=C\CCCCCCCC (some centres unmarked) [DOGSHDO, 1',2'-dioleyl-sn-glycero-3'-succinyl-1,6-hexanediol ornithine conjugate]
transgene expression efficiency (green fluorescence protein) (CHO cells [1]): 6-7%
effect of further increase of liposome amount above 10/1 [2]: caused cytotoxicity and decreased the transfection activity
optimal weight ratio of cationic lipid to DNA in transfection [2]: 10/1
saturation of system (COS 1 cells; 7 μg of DNA, COS-1 cells): did not reach the saturation
luciferase gene expression (COS 1 cells; COS 1, 7 g of pDNA): 3.84E+08
transgene expression with increasing complexes (COS 1 cells; COS 1, lipid/DNA 10/1): increased with the increase of DNA/DOGSHDO complexes (p<0.0071) for the system did not reach saturation
luciferase expression, 7 μg of DNA, vs 2 μg of DNA by DOGSDSO (COS 1 cells; COS-1 cells): only one third of that of 2 μg of DNA transferred by DOGSDSO liposome
aggregation of transfection complexes [3, 5]: did not aggregate during transfection
gene expression with increasing amount of DNA/liposome (CHO cells [4]; CHO): gene expression kept increasing
transfection time of highest transfection activity (CHO cells [4]; [6]): 12 h
luciferase gene expression (CHO cells [4]; CHO, 7 μg of DNA): 6.5E+07

CC(C)CCC[C@@H](C)[C@H]1CC[C@H]2[C@@H]3CC=C4C[C@@H](OC(=O)CCC(=O)NCCN(CCN)CCN)CC[C@]4(C)[C@H]3CC[C@]12C [CHSTAEA, Cholesteryl hemisuccinyl tris(aminoethyl)amine]
cytotoxicity vs CHDTAEA (CHO and SKnSH cells): much greater cytotoxicity
release of DNA from complexes (plasmid DNA): did not release DNA at any conditions after incubation for 20 hours

CCCCCCCC/C=C\CCCCCCCC(=O)OC[C@H](COC(=O)CCC(=O)OCCSSCCOC(=O)C(N)CCCN)OC(=O)CCCCCCC/C=C\CCCCCCCC (some centres unmarked) [DOGSDSO, 1',2'-dioleoyl-sn-glycero-3'-succinyl-2-hydroxyethyl disulfide ornithine conjugate]
transgene expression efficiency (green fluorescence protein) (CHO cells [1]): 20-25%
effect of further increase of liposome amount above 10/1 [2]: caused cytotoxicity and decreased the transfection activity
optimal weight ratio of cationic lipid to DNA in transfection [2]: 10/1
effect on transfection activity compared to DOGSHDO (COS-1 cells): greater than 50 fold
transfection activity in the presence of serum (COS 1 cells; 10% FBS, COS-1 cells): equally active in the presence of 10% FBS
luciferase gene expression, 2 g of pDNA, vs 7 g of pDNA with DOGSHDO (COS 1 cells; COS 1): 3 time higher
luciferase gene expression (COS 1 cells; COS 1, 2 g of pDNA): 1.18E+09
transfection activity in growth media vs serum free media (COS 1 cells; COS 1, 12 hours): comparable to transfection activity in serum free media
transfection activity (luciferase) (COS 1 cells; COS 1, growth media (10% FBS), 12 hours): 5.9×10^8 RLU/mg protein
highest transfection activity, times higher than DOGSHDO (COS 1 cells; COS 1, growth media with serum): 3 times
highest transfection activity, times higher than DOTAP (COS 1 cells; COS 1, growth media with serum): 2 times
amount of DNA at saturation of system (COS 1 cells; COS 1, lipid/DNA 10/1): 2 g
transgene expression on increase of DNA from 2 g to 7 g (COS 1 cells; COS 1, lipid/DNA 10/1): no significant increase of transgene expression (p>0.2319)
transfection activity, times higher than DOGSHDO (COS 1 cells; COS 1, serum free, optimal ratio of each liposome): 11 times
transfection activity, times higher than DOTAP (COS 1 cells; COS 1, serum free, optimal ratio, DOTAP at 1:1): 6 times
amount of DNA at saturation of system (COS 1 cells; COS-1 cells, optimal DNA/liposome ratio): 2e-06 g
expression of luciferase at lipid/DNA ratios 1/1, 2/1, 3/1, 4/1 (w/w) (COS 1 cells; growth media with serum): not statistically different (p>0.2782)
aggregation of transfection complexes [3, 5]: did not aggregate during transfection
gene expression on further increase of DNA to 7 μg (CHO cells [4]; CHO): decrease of gene expression (p<0.0232)
gene expression, 5 μg vs 6 μg of DNA (CHO cells [4]; CHO): no significant difference of gene expression between the treatments of 5 μg of DNA and 6 μg of DNA (p>0.6528)
luciferase gene expression, 5 μg of DNA, vs 7 μg of DNA by DOGSHDO (CHO cells [4]; CHO): 14 times higher
transfection time of highest transfection activity (CHO cells [4]; [6]): 12 h
luciferase gene expression (CHO cells [4]; CHO, 5 μg of DNA): 9.03E+08
optimal transfection activity, times higher than DOTAP or DOGSHDO (CHO cells [4]; CHO, growth media with serum): 3 times
transfection efficiency vs DOGSHDO (CHO cells [4]; CHO, lipid/DNA 10/1): higher transfection efficiency
transfection activity, times higher than DOGSHDO (CHO cells [4]; [7]): 3 times
transfection activity, times higher than DOTAP (CHO cells [4]; [7]): 2 times
amount of DNA at saturation of system (CHO cells [4]; CHO, transferred by 50 μg of DOGSDSO): 5 µg
increase in transfection activity compared to DOGSHDO (SKnSH cells): 4 fold
effect on transfection activity compared to DOGSHDO (293 cells): greater than 50 fold

CCCCCCCC/C=C\CCCCCCCC(=O)OCC(C[N+](C)(C)C)OC(=O)CCCCCCC/C=C\CCCCCCCC (centres unmarked) [DOTAP, 1,2-dioleoyl-3-trimethylammonium-propane, reference compound]
transgene expression efficiency (green fluorescence protein) (CHO cells [1]): 5-6%
aggregation of transfection complexes ([3]; weight ratios of DOTAP to DNA bigger than 2:1): form large aggregates
transfection activity from 2 hours to 48 hours transfection time (CHO cells [4]; [6]): not statistically different from 2 hours to 48 hours transfection time (p>0.1220)
